Measurements: patent publication US8163526B2, “Ethanol production” (The University of Durham, priority 2006, dated 2012)

Experiments:
[1] = system: Z. mobilis cells; assay: chromate assay for ethanol production by untreated and AI-2-treated Z. mobilis cells; type: cell-based, Zymomonas mobilis
From the text: The two overproduced cytosolic proteins were identified as enolase, ZMO1608, and pyruvate decarboxylase, ZMO1360 as illustrated in FIG. 2. These are sequential enzymes in the E-D pathway that leads to ethanol production. […] A chromate assay (e.g. 3C2H5OH+4Cr03−>2Cr2O3+3H2O) was used to asses ethanol production, monitoring colour change (e.g. at 600 nm) to determine the ethanol produced.

[2] = system: Z. mobilis; assay: overproduction of proteins in Z. mobilis in response to autoinducer (identified by mass spectrometry); type: cell-based, Zymomonas mobilis; details: AI-2 produced in vitro with purified enzymes; 2 cytoplasmic and 3 secreted proteins
From the text: […] Nature 437, […]) to avoid the toxic effects of bacteriocin production, it stimulated Z. mobilis to overproduce at least 5 proteins, 2 which were retained in the cytoplasm and 3 that were secreted. These proteins were not produced when Z. mobilis was co-cultured with the luxS-deletion strain KX1128, which lacks the LuxS enzyme that is responsible for the synthesis of 4,5-dihydroxy-2,3-pentanedione (DPD) from S-ribosylhomocysteine, which spontaneously cyclizes to form the autoinducer molecule Autoinducer-2 (AI-2).
The proteins overproduced in response to AI-2 were identified by mass spectrometry sequencing of tryptic-fragments. The first of the secreted proteins, ZMO1147, was identified as a homologue of the E. coli periplasmic chaperone Skp/HIpA (Walton, T A and Sousa M C (2004) Crystal structure of Skp, a prefoldin-like chaperone that protects soluble and membrane proteins from aggregation. Mol Cell. 15, 367-74). […] In E.coli the yaeT and hlpA genes are clustered. In Z. mobilis, ZMO1147 is clearly transcriptionally linked to ZMO1148, a homologue of yaeT, being directly downstream of ZMO1148, so that they share the same promoter. Consequently, both ZMO1147 and ZMO1148 must be induced by AI-2. […] Clearly, ZMO1147 must have a role above and beyond acting as a periplasmic chaperone. […]

Autoinducer-2 [AI-2]
medium ethanol concentration ([1]; AI-2-treated Z. mobilis, untreated 9%, FIG. 3): 14.2% | ethanol production (in words) ([1]; AI-2-treated vs untreated Z. mobilis cells): significant increase in ethanol production | increase in ethanol production ([1]; AI-2-treated vs untreated Z. mobilis, average of two experiments, chromate assay, colour change at 600 nm): 54% | protein overproduction in Z. mobilis (in words) [2]: over production of the same five proteins
